Reference: patent publication US10287298B2, “Nitrogen-containing analogs of salinomycin, synthesis and use against cancer stem cells and malaria” (Centre National de la Recherche Scientifique (CNRS), priority 2014, dated 2019)
Read-outs that look alike come from different tables or passages of the source.

Key:
HMLER CD24− cells [1] = test: Cell viability assay (CellTiter-Blue), IC50 assessment; type: cell-based, Human; conditions: for IC50: Homo sapiens, read-out: IC50 CD24−; for activity against CD24 cells compared with salinomycine: comparison of the IC50 results
Protocol: (§1) FIG. 1 represents viability of HMLER CD24− cells (full line) and HMLER CD24+ cells (dotted line) at different concentration of salinomycine (1A), AM5 […] or AM13 (1D).
(§2) Cell viability assay was carried out by plating 1000 cells per well in 96-well plates. NAC (2 mM, A9165 Sigma) or DFO (1 mM) were pretreated 2 hours prior to the compound treatment. CellTiter-Blue® Reagent (Promega; G3582) (20 μl/well) was added after 24, 48, or 72 hours treatment and cells were incubated for 1 hour before recording fluorescence (560(20)Ex/590(10)Em) using a Perkin Elmer Wallac 1420 Victor2 Microplate Reader.

HMLER CD24+ cells = test: as above; type: cell-based; conditions: Homo sapiens, read-out: IC50 CD24+
Protocol: as §1, §2

HMLER CD24− cells [2] = test: Cell proliferation and formation of mammospheres; type: cell-based, Human
Excerpt: FIG. 2 is a representative phase contrast photomicrographs of mammospheres formed after 11 days in the absence of any added compound (Control) or in the presence of a defined amount of salinomycine, AM5, AM9 or AM13. […] The size of the mammospheres is correlated with progenitor cell proliferation, whereas the number of mammospheres formed after serial passages at clonal density is correlated with the self-renewal capacity of primitive Cancer Stem Cells. […]
FIG. 9 represents images of the third generation of mammospheres formed from individual HMLER CD24low cells treated during 7 days with the indicated drug. The size of the mammospheres is correlated with progenitor cell proliferation capacity, whereas the number of mammospheres formed after serial passages at clonal density is correlated with the self-renewal capacity of primitive Cancer Stem Cells.
AM5, AM9, AM13 and salinomycine were assessed for their capability to inhibit cell proliferation and formation of mammospheres. […]
AM5 and AM23 and salinomycine were assessed for their capability to inhibit cell proliferation and formation of mammospheres.

[3] = HMLER CD24− cells, cell viability
[4] = HMLER CD24+ cells, cell viability

Row | SMILES | IC50 (HMLER CD24− cells [1]; [3]) | IC50 (HMLER CD24+ cells; [4]) | activity against CD24 cells compared with salinomycine (HMLER CD24− cells [1]) | also measured
1 | CCC(C(=O)O)[C@H]1CC[C@H](C)C([C@@H](C)[C@H](O)[C@H](C)C(=O)[C@H](CC)[C@H]2O[C@]3(C=C[C@@H](NC4CCCC4)[C@]4(CC[C@@](C)([C@H]5CC[C@](O)(CC)[C@H](C)O5)O4)O3)[C@H](C)C[C@@H]2C)O1 (stereo partly drawn) [AM25] | 0.108 µM | 1.36 µM | – | –
2 | CCC(C(=O)O)[C@H]1CC[C@H](C)C([C@@H](C)[C@H](O)[C@H](C)C(=O)[C@H](CC)[C@H]2O[C@]3(C=C[C@@H](NOCc4ccccc4)[C@]4(CC[C@@](C)([C@H]5CC[C@](O)(CC)[C@H](C)O5)O4)O3)[C@H](C)C[C@@H]2C)O1 (stereo partly drawn) [AM8] | 1.02 µM | 8.06 µM | significantly improved activity | –
3 | C#CCN[C@@H]1C=C[C@]2(O[C@H]([C@@H](CC)C(=O)[C@@H](C)[C@@H](O)[C@H](C)C3O[C@@H](C(CC)C(=O)OC)CC[C@@H]3C)[C@@H](C)C[C@H]2C)O[C@@]12CC[C@@](C)([C@H]1CC[C@](O)(CC)[C@H](C)O1)O2 (stereo partly drawn) [AM9, Me-Sal-propargylamine] | 11.8 µM | 22 µM | lower efficiency than salinomycine | effect against tumorsphere formation / CSC maintenance (HMLER CD24− cells [2]): ineffective; inhibition of cell proliferation (HMLER CD24− cells [2]; at 500 nM): did not inhibit cell proliferation
4 | CCCCCCCCCCCCN[C@@H]1C=C[C@]2(O[C@H]([C@@H](CC)C(=O)[C@@H](C)[C@@H](O)[C@H](C)C3O[C@@H](C(CC)C(=O)O)CC[C@@H]3C)[C@@H](C)C[C@H]2C)O[C@@]12CC[C@@](C)([C@H]1CC[C@](O)(CC)[C@H](C)O1)O2 (stereo partly drawn) [AM13, Sal-Dodecylamine] | 0.0727 µM | 3.19 µM | significantly improved activity | inhibition of cell proliferation, efficacy in comparison with salinomycine (HMLER CD24− cells [2]; at 30 nM): ten-fold improved efficacy; number and size of mammosphere (HMLER CD24− cells [2]; mammospheres after 11 days, low nanomolar concentrations): reduced the number and the size of mammosphere
5 | CCC(C(=O)NO)[C@H]1CC[C@H](C)C([C@@H](C)[C@H](O)[C@H](C)C(=O)[C@H](CC)[C@H]2O[C@]3(C=C/C(=N\O)[C@]4(CC[C@@](C)([C@H]5CC[C@](O)(CC)[C@H](C)O5)O4)O3)[C@H](C)C[C@@H]2C)O1 (stereo partly drawn) [AM18] | 0.1 µM | 2.5 µM | – | –
6 | CCC(C(=O)O)[C@H]1CC[C@H](C)C([C@@H](C)[C@H](O)[C@H](C)C(=O)[C@H](CC)[C@H]2O[C@]3(C=CC(=O)[C@]4(CC[C@@](C)([C@H]5CC[C@](O)(CC)[C@H](C)O5)O4)O3)[C@H](C)C[C@@H]2C)O1 (stereo partly drawn) [AM6] | – | – | – | IC50 (HMLER CD24− cells [1]): 6.18 µM; IC50 (HMLER CD24+ cells): 12.8 µM
7 | CC(=O)O[C@H]1C(=O)[C@@]2(C)[C@H]([C@H](OC(=O)c3ccccc3)[C@]3(O)C[C@H](OC(=O)[C@H](O)[C@@H](NC(=O)c4ccccc4)c4ccccc4)C(C)=C1C3(C)C)[C@]1(OC(C)=O)CO[C@@H]1C[C@@H]2O [paclitaxel, reference compound] | – | – | – | effect against tumorsphere formation / CSC maintenance (HMLER CD24− cells [2]): poorly effective
8 | CCC(C(=O)NO)[C@H]1CC[C@H](C)C([C@@H](C)[C@H](O)[C@H](C)C(=O)[C@H](CC)[C@H]2O[C@]3(C=C[C@@H](NC4CC4)[C@]4(CC[C@@](C)([C@H]5CC[C@](O)(CC)[C@H](C)O5)O4)O3)[C@H](C)C[C@@H]2C)O1 (stereo partly drawn) [AM28] | 6.43 µM | 5.83 µM | – | –
9 | CCC(C(=O)O)[C@H]1CC[C@H](C)C([C@@H](C)[C@H](O)[C@H](C)C(=O)[C@H](CC)[C@H]2O[C@]3(C=C[C@@H](NCc4ccccc4)[C@]4(CC[C@@](C)([C@H]5CC[C@](O)(CC)[C@H](C)O5)O4)O3)[C@H](C)C[C@@H]2C)O1 (stereo partly drawn) [AM11] | 0.8 µM | 6.7 µM | significantly improved activity | –
10 | CCC(C(=O)O)[C@H]1CC[C@H](C)C([C@@H](C)[C@H](O)[C@H](C)C(=O)[C@H](CC)[C@H]2O[C@]3(CC[C@@H](NCC(C)C)[C@]4(CC[C@@](C)([C@H]5CC[C@](O)(CC)[C@H](C)O5)O4)O3)[C@H](C)C[C@@H]2C)O1 (stereo partly drawn) [AM26] | 1.15 µM | 10.1 µM | – | –
11 | C#CCCCN[C@@H]1C=C[C@]2(O[C@H]([C@@H](CC)C(=O)[C@@H](C)[C@@H](O)[C@H](C)C3O[C@@H](C(CC)C(=O)O)CC[C@@H]3C)[C@@H](C)C[C@H]2C)O[C@@]12CC[C@@](C)([C@H]1CC[C@](O)(CC)[C@H](C)O1)O2 (stereo partly drawn) [AM16] | 0.3 µM | 1.17 µM | – | –
12 | CCCN[C@@H]1C=C[C@]2(O[C@H]([C@@H](CC)C(=O)[C@@H](C)[C@@H](O)[C@H](C)C3O[C@@H](C(CC)C(=O)O)CC[C@@H]3C)[C@@H](C)C[C@H]2C)O[C@@]12CC[C@@](C)([C@H]1CC[C@](O)(CC)[C@H](C)O1)O2 (stereo partly drawn) [AM21] | 0.34 µM | 6.5 µM | – | –
13 | C#CCN[C@H]1C=C[C@]2(O[C@H]([C@@H](CC)C(=O)[C@@H](C)[C@@H](O)[C@H](C)C3O[C@@H](C(CC)C(=O)O)CC[C@@H]3C)[C@@H](C)C[C@H]2C)O[C@@]12CC[C@@](C)([C@H]1CC[C@](O)(CC)[C@H](C)O1)O2 (stereo partly drawn) [AM17] | 0.1 µM | 2 µM | – | –
14 | C#CCN[C@@H]1C=C[C@]2(O[C@H]([C@@H](CC)C(=O)[C@@H](C)[C@@H](O)[C@H](C)C3O[C@@H](C(CC)C(=O)OCC#C)CC[C@@H]3C)[C@@H](C)C[C@H]2C)O[C@@]12CC[C@@](C)([C@H]1CC[C@](O)(CC)[C@H](C)O1)O2 (stereo partly drawn) [AM10] | 10 µM | 19.7 µM | lower efficiency than salinomycine | –
15 | CCC(C(=O)O)[C@H]1CC[C@H](C)C([C@@H](C)[C@H](O)[C@H](C)C(=O)[C@H](CC)[C@H]2O[C@]3(C=C[C@@H](NC4CCC4)[C@]4(CC[C@@](C)([C@H]5CC[C@](O)(CC)[C@H](C)O5)O4)O3)[C@H](C)C[C@@H]2C)O1 (stereo partly drawn) [AM24] | 0.107 µM | 1.4 µM | – | –
16 | C=CCN[C@@H]1C=C[C@]2(O[C@H]([C@@H](CC)C(=O)[C@@H](C)[C@@H](O)[C@H](C)C3O[C@@H](C(CC)C(=O)O)CC[C@@H]3C)[C@@H](C)C[C@H]2C)O[C@@]12CC[C@@](C)([C@H]1CC[C@](O)(CC)[C@H](C)O1)O2 (stereo partly drawn) [AM22] | 0.3 µM | 1.53 µM | – | –
17 | CCCCCCN[C@@H]1C=C[C@]2(O[C@H]([C@@H](CC)C(=O)[C@@H](C)[C@@H](O)[C@H](C)C3O[C@@H](C(CC)C(=O)O)CC[C@@H]3C)[C@@H](C)C[C@H]2C)O[C@@]12CC[C@@](C)([C@H]1CC[C@](O)(CC)[C@H](C)O1)O2 (stereo partly drawn) [AM12] | 1.79 µM | 6.92 µM | significantly improved activity | –
18 | CCC(C(=O)OC)[C@H]1CC[C@H](C)C([C@@H](C)[C@H](O)[C@H](C)C(=O)[C@H](CC)[C@H]2O[C@]3(C=C[C@@H](OC(C)=O)[C@]4(CC[C@@](C)([C@H]5CC[C@](O)(CC)[C@H](C)O5)O4)O3)[C@H](C)C[C@@H]2C)O1 (stereo partly drawn) [AM7] | 7.25 µM | 12.5 µM | – | –
